According to ChEMBL document CHEMBL4665709, “Rational Avoidance of Protease Cleavage Sites and Symmetrical End-Tagging Significantly Enhances the Stability and Therapeutic Potential of Antimicrobial Peptides” (J Med Chem, 2020):
≈ marks a conversion by molar mass, not a printed value. Where a SMILES comes first, the peptide text is derived from it.

Experiments:
[1] = Therapeutic index, ratio of MHC for human RBC to geometric mean of peptide MIC for methicillin-resistant Staphylococcus aureus 43300; format: toxicity; settings: human red blood cells (RBC), read-out: TI
[2] = test system: Salmonella enterica; assay: Antibacterial activity against Salmonella choleraesuis 503 after 18 to 24 hrs by CLSI-based broth microdilution method; format: functional; settings: time hrs 18-24
[3] = test system: Salmonella typhimurium; assay: Antibacterial activity against Salmonella typhimurium 14028 after 18 to 24 hrs by CLSI-based broth microdilution method; format: functional, Salmonella enterica subsp. enterica serovar Typhimurium; settings: Salmonella enterica, time hrs 18-24
[4] = Therapeutic index, ratio of MHC for human RBC to geometric mean of peptide MIC for Salmonella typhimurium 7731; format: toxicity; settings: human red blood cells (RBC), read-out: TI
[5] = test system: Staphylococcus aureus; assay: Antibacterial activity against Staphylococcus aureus 11011 after 18 to 24 hrs by CLSI-based broth microdilution method; format: functional; settings: time hrs 18-24
[6] = test system: Escherichia coli; assay: Antibacterial activity against Escherichia coli ATCC 25922 after 18 to 24 hrs by CLSI-based broth microdilution method; format: functional; settings: time hrs 18-24
[7] = test system: Staphylococcus aureus; assay: Antibacterial activity against methicillin-resistant Staphylococcus aureus 43300 after 18 to 24 hrs by CLSI-based broth microdilution method; format: functional; settings: time hrs 18-24
[8] = test system: Erythrocyte; assay: Hemolytic activity in human RBC assessed as hemolysis; format: ADME, cell-based
[9] = Therapeutic index, ratio of MHC for human RBC to geometric mean of peptide MIC for Salmonella typhimurium 14028; format: toxicity; settings: human red blood cells (RBC), read-out: TI
[10] = test system: Enterococcus faecalis; assay: Antibacterial activity against Enterococcus faecalis ATCC 29212 after 18 to 24 hrs by CLSI-based broth microdilution method; format: functional; settings: time hrs 18-24
[11] = Hemolytic activity in human RBC assessed as hemolysis at 1 to 128 uM relative to control; format: ADME, cell-based, Erythrocyte; settings: human red blood cells (RBC), dose 1-128 µM, read-out: Activity
[12] = Therapeutic index, ratio of MHC for human RBC to geometric mean of peptide MIC for Enterococcus faecalis ATCC 29212; format: toxicity; settings: human red blood cells (RBC), read-out: TI
[13] = test system: Escherichia coli; assay: Antibacterial activity against Escherichia coli UB1005 after 18 to 24 hrs by CLSI-based broth microdilution method; format: functional; settings: time hrs 18-24
[14] = Cytotoxicity against HEK-293T cells assessed as cell viability at 128 uM by MTT assay relative to control; format: cell-based; settings: human, read-out: Activity
[15] = Therapeutic index, ratio of MHC for human RBC to geometric mean of peptide MIC for Staphylococcus aureus 11011; format: toxicity; settings: human red blood cells (RBC), read-out: TI
[16] = Therapeutic index, ratio of MHC for human RBC to geometric mean of peptide MIC for Staphylococcus aureus ATCC 29213; format: toxicity; settings: human red blood cells (RBC), read-out: TI
[17] = Therapeutic index, ratio of MHC for human RBC to geometric mean of peptide MIC for Salmonella pullorum 7913; format: toxicity; settings: human red blood cells (RBC), read-out: TI
[18] = Therapeutic index, ratio of MHC for human RBC to geometric mean of peptide MIC for Streptococcus agalactiae H92; format: toxicity; settings: human red blood cells (RBC), read-out: TI
[19] = Therapeutic index, ratio of MHC for human RBC to geometric mean of peptide MIC for Escherichia coli UB1005; format: toxicity; settings: human red blood cells (RBC), read-out: TI
[20] = Cytotoxicity against mouse RAW264.7 cells assessed as cell viability at 128 uM by MTT assay relative to control; format: cell-based; settings: read-out: Activity
[21] = test system: Staphylococcus epidermidis; assay: Antibacterial activity against Staphylococcus epidermidis ATCC 12228 after 18 to 24 hrs by CLSI-based broth microdilution method; format: functional; settings: time hrs 18-24
[22] = test system: Salmonella typhimurium; assay: Antibacterial activity against Salmonella typhimurium 7731 after 18 to 24 hrs by CLSI-based broth microdilution method; format: functional, Salmonella enterica subsp. enterica serovar Typhimurium; settings: Salmonella enterica, time hrs 18-24
[23] = Antibacterial activity against Salmonella pullorum 7913 after 18 to 24 hrs by CLSI-based broth microdilution method; format: functional, Salmonella enterica subsp. enterica serovar Pullorum; settings: Salmonella enterica, time hrs 18-24
[24] = test system: Staphylococcus aureus; assay: Antibacterial activity against Staphylococcus aureus ATCC 29213 after 18 to 24 hrs by CLSI-based broth microdilution method; format: functional; settings: time hrs 18-24
[25] = Therapeutic index, ratio of MHC for human RBC to geometric mean of peptide MIC for Salmonella choleraesuis 503; format: toxicity; settings: human red blood cells (RBC), read-out: TI
[26] = Therapeutic index, ratio of MHC for human RBC to geometric mean of peptide MIC for Staphylococcus epidermidis ATCC 12228; format: toxicity; settings: human red blood cells (RBC), read-out: TI
[27] = Therapeutic index, ratio of MHC for human RBC to geometric mean of peptide MIC for Escherichia coli ATCC 25922; format: toxicity; settings: human red blood cells (RBC), read-out: TI
[28] = test system: Streptococcus agalactiae; assay: Antibacterial activity against Streptococcus agalactiae H92 after 18 to 24 hrs by CLSI-based broth microdilution method; format: functional; settings: time hrs 18-24

Compound	selectivity ratio [1]	MIC [2]	MIC [3]	selectivity ratio [4]	MIC [5]	MIC [6]	MIC [7]	MHC [8]	selectivity ratio [9]	MIC [10]	hemolysis at up to 128 µM [11]	selectivity ratio [12]	MIC [13]	viability at 128 µM [14]	selectivity ratio [15]	selectivity ratio [16]	selectivity ratio [17]	selectivity ratio [18]	selectivity ratio [19]	viability at 128 µM [20]	further results
CC(C)[C@H](N)C(=O)N[C@@H](CS)C(=O)N[C@@H](CCCNC(=N)N)C(=O)N[C@@H](CCCCN)C(=O)N1CCC[C@H]1C(=O)N[C@H](C(=O)N[C@H](C(=O)N[C@@H](CS)C(=O)N[C@@H](CCCNC(=N)N)C(=O)N[C@@H](CCCCN)C(=O)N1CCC[C@H]1C(=O)N[C@H](C(N)=O)C(C)C)C(C)C)C(C)C (H-VCRKPVVCRKPV-NH2)	2	> 64 µM	> 64 µM	2	> 64 µM	> 64 µM	> 64 µM	> 128 µM	2	> 64 µM	< 5%	2	> 64 µM	> 90%	2	2	2	2	2	> 90%	MIC [21]: > 64 µM; MIC [22]: > 64 µM; MIC [23]: > 64 µM; MIC [24]: > 64 µM; selectivity ratio [25]: 2; selectivity ratio [26]: 2; selectivity ratio [27]: 2; MIC [28]: > 64 µM
CC(C)[C@H](N)C(=O)N[C@@H](CS)C(=O)N[C@@H](CCCNC(=N)N)C(=O)N[C@@H](CCCCN)C(=O)N1CCC[C@H]1C(=O)N[C@H](C(=O)N[C@H](C(=O)N[C@@H](CS)C(=O)N[C@@H](CCCNC(=N)N)C(=O)N[C@@H](CCCCN)C(=O)N1CCC[C@H]1C(=O)N[C@H](C(=O)N[C@H](C(=O)N[C@@H](CS)C(=O)N[C@@H](CCCNC(=N)N)C(=O)N[C@@H](CCCCN)C(=O)N1CCC[C@H]1C(=O)N[C@H](C(N)=O)C(C)C)C(C)C)C(C)C)C(C)C)C(C)C (H-VCRKPVVCRKPVVCRKPV-NH2)	2	> 64 µM	8 µM (≈ 16.5 µg/mL)	6.35	> 64 µM	8 µM (≈ 16.5 µg/mL)	> 64 µM	> 128 µM	6.35	> 64 µM	< 5%	2	16 µM (≈ 33.1 µg/mL)	> 90%	2	2	6.35	2	6.35	> 90%	MIC [21]: > 64 µM; MIC [22]: 16 µM (≈ 33.1 µg/mL); MIC [23]: > 64 µM; MIC [24]: > 64 µM; selectivity ratio [25]: 6.35; selectivity ratio [26]: 2; selectivity ratio [27]: 6.35; MIC [28]: > 64 µM
CC(C)[C@H](N)C(=O)N[C@@H](CS)C(=O)N[C@@H](CCCNC(=N)N)C(=O)N[C@@H](CCCCN)C(=O)N1CCC[C@H]1C(=O)N[C@H](C(=O)N[C@H](C(=O)N[C@@H](CS)C(=O)N[C@@H](CCCNC(=N)N)C(=O)N[C@@H](CCCCN)C(=O)N1CCC[C@H]1C(=O)N[C@H](C(=O)N[C@H](C(=O)N[C@@H](CS)C(=O)N[C@@H](CCCNC(=N)N)C(=O)N[C@@H](CCCCN)C(=O)N1CCC[C@H]1C(=O)N[C@H](C(=O)N[C@H](C(=O)N[C@@H](CS)C(=O)N[C@@H](CCCNC(=N)N)C(=O)N[C@@H](CCCCN)C(=O)N1CCC[C@H]1C(=O)N[C@H](C(N)=O)C(C)C)C(C)C)C(C)C)C(C)C)C(C)C)C(C)C)C(C)C (H-VCRKPVVCRKPVVCRKPVVCRKPV-NH2)	2	> 64 µM	8 µM (≈ 22 µg/mL)	8	> 64 µM	8 µM (≈ 22 µg/mL)	> 64 µM	> 128 µM	8	> 64 µM	< 5%	2	8 µM (≈ 22 µg/mL)	> 90%	2	2	8	2	8	> 90%	MIC [21]: > 64 µM; MIC [22]: 8 µM (≈ 22 µg/mL); MIC [23]: 64 µM (≈ 176 µg/mL); MIC [24]: > 64 µM; selectivity ratio [25]: 8; selectivity ratio [26]: 2; selectivity ratio [27]: 8; MIC [28]: > 64 µM
CC(C)[C@H](N)C(=O)N[C@@H](CS)C(=O)N[C@@H](CCCNC(=N)N)C(=O)N[C@@H](CCCCN)C(=O)N1CCC[C@H]1C(=O)N[C@H](C(=O)N[C@H](C(=O)N[C@@H](CS)C(=O)N[C@@H](CCCNC(=N)N)C(=O)N[C@@H](CCCCN)C(=O)N1CCC[C@H]1C(=O)N[C@H](C(=O)N[C@H](C(=O)N[C@@H](CS)C(=O)N[C@@H](CCCNC(=N)N)C(=O)N[C@@H](CCCCN)C(=O)N1CCC[C@H]1C(=O)N[C@H](C(=O)N[C@H](C(=O)N[C@@H](CS)C(=O)N[C@@H](CCCNC(=N)N)C(=O)N[C@@H](CCCCN)C(=O)N1CCC[C@H]1C(=O)N[C@H](C(=O)N[C@H](C(=O)N[C@@H](CS)C(=O)N[C@@H](CCCNC(=N)N)C(=O)N[C@@H](CCCCN)C(=O)N1CCC[C@H]1C(=O)N[C@H](C(N)=O)C(C)C)C(C)C)C(C)C)C(C)C)C(C)C)C(C)C)C(C)C)C(C)C)C(C)C (H-VCRKPVVCRKPVVCRKPVVCRKPVVCRKPV-NH2)	2	> 64 µM	4 µM (≈ 13.7 µg/mL)	16	> 64 µM	4 µM (≈ 13.7 µg/mL)	> 64 µM	> 128 µM	16	> 64 µM	< 5%	2	4 µM (≈ 13.7 µg/mL)	> 90%	2	2	16	2	16	> 90%	MIC [21]: > 64 µM; MIC [22]: 4 µM (≈ 13.7 µg/mL); MIC [23]: 16 µM (≈ 54.9 µg/mL); MIC [24]: > 64 µM; selectivity ratio [25]: 16; selectivity ratio [26]: 2; selectivity ratio [27]: 16; MIC [28]: > 64 µM
